This note sets out measurements from patent publication US20250122182A1 (Isosterix, Inc., priority 2023, published 2025).

In this assay the target is Recombinant KAT6A/MOZ (488-778) protein (Homo sapiens (Human), UniProt Q92794). As to the kind of experiment: KAT6A AlphaLISA Inhibition Screening Assay. The format is biochemical. The conditions noted are these: for inhibition at 1 µM: read-out: Average Kat6A % inhibition @ 1 μM; for inhibition at 1 µM / Average Kat6A % inhibition @ 1 μM: 1 μM test compound; for inhibition at 10 µM: read-out: Average Kat6A % inhibition @ 10 μM; for inhibition at 10 µM / Average Kat6A % inhibition @ 10 μM: 10 μM test compound. A digest of the protocol: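 AlphaLISA read-out with anti-acetyl-lysine acceptor and streptavidin donor beads, % inhibition relative to vehicle. Reaction: biotinylated histone H3 1-21 (200 nM) and acetyl-CoA (400 nM) with KAT6A 488-778 (25 nM), 120 min at room temperature, pH 8.0, 330 nM TSA, after 60 or 10 min enzyme–compound pre-incubation; 10-point 3-fold series from 10 μM.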
A general note: In Alpha technology, singlet oxygen from a donor bead excites a nearby acceptor bead.

Chain of Recombinant KAT6A/MOZ (488-778) protein (Q92794 488-778): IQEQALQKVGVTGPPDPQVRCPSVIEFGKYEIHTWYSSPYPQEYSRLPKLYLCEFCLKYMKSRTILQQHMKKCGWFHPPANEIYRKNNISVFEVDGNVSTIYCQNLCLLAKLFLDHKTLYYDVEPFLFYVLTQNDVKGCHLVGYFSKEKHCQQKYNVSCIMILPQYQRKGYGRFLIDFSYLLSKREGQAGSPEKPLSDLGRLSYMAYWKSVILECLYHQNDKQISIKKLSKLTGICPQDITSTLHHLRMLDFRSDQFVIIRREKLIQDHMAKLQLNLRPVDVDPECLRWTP

For orientation: inhibition means the share of the control response that was lost under treatment. Consider `C=C(F)C(=O)NCc1cnn(Cc2cc(OC)c3c(NS(=O)(=O)c4cc(CC)ccc4OCCN)noc3c2)c1` [Syn. Ex. 76, N-((1-((3-((2-(2-aminoethoxy)-5-ethylphenyl)sulfonamido)-4-methoxybenzo[d]isoxazol-6-yl)methyl)-1H-pyrazol-4-yl)methyl)-2-fluoroacrylamide], for which the inhibition at 1 µM was found to be 74% and the inhibition at 10 µM is 96%.

As for `CCc1ccc(OC)c(S(=O)(=O)Nc2noc3cc(Cn4cc(CNC(=O)NC)cn4)cc(OC)c23)c1` [Syn. Ex. 91, 5-ethyl-2-methoxy-N-(4-methoxy-6-((4-((3-methylureido)methyl)-1H-pyrazol-1-yl)methyl)benzo[d]isoxazol-3-yl)benzenesulfonamide], the inhibition at 1 µM came to 99% and the inhibition at 10 µM amounted to 100%.

On to `CCc1ccc(OC)c(S(=O)(=O)Nc2noc3cc(Oc4ncc(CN[S+]([O-])C(C)(C)C)o4)cc(OC)c23)c1` (stereo not drawn) [Syn. Ex. 98, N-(6-((5-(((tert-Butylsulfinyl)amino)methyl)oxazol-2-yl)oxy)-4-methoxybenzo[d]isoxazol-3-yl)-5-ethyl-2-methoxybenzenesulfonamide], for which the inhibition at 1 µM is 78% and the inhibition at 10 µM was determined as 92%.

Turning to `C#CC(=O)NCc1cnn(Cc2cc(OC)c3c(NS(=O)(=O)c4cc(CC)ccc4OCCO)noc3c2)c1` [Syn. Ex. 65, N-((1-((3-((5-ethyl-2-(2-hydroxyethoxy)phenyl)sulfonamido)-4-methoxybenzo[d]isoxazol-6-yl)methyl)-1H-pyrazol-4-yl)methyl)propiolamide], the inhibition at 1 µM was 100% and the inhibition at 10 µM came to 100%.

For the compound `CCc1ccc(OCc2ncon2)c(S(=O)(=O)Nc2noc3cc(Cn4cc(CNC(=O)OC)cn4)cc(OC)c23)c1` [Syn. Ex. 74, methyl ((1-((3-((2-((1,2,4-oxadiazol-3-yl)methoxy)-5-ethylphenyl)sulfonamido)-4-methoxybenzo[d]isoxazol-6-yl)methyl)-1H-pyrazol-4-yl)methyl)carbamate], the inhibition at 1 µM amounted to 100% and the inhibition at 10 µM stood at 100%.

Consider `COc1ccc(S(=O)(=O)Nc2noc3cc(Cn4cc(CNS(C)(=O)=O)cn4)cc(OC)c23)c(OC)c1` [Syn. Ex. 10, 2,4-dimethoxy-N-(4-methoxy-6-((4-(methylsulfonamidomethyl)-1H-pyrazol-1-yl)methyl)benzo[d]isoxazol-3-yl)benzenesulfonamide], for which the inhibition at 1 µM worked out at 100% and the inhibition at 10 µM is 100%.

As to `C=C(F)C(=O)NCc1cnn(Cc2cc(OC)c3c(NS(=O)(=O)c4ccccc4OC)noc3c2)c1` [Syn. Ex. 40, 2-fluoro-N-((1-((4-methoxy-3-((2-methoxyphenyl)sulfonamido)benzo[d]isoxazol-6-yl)methyl)-1H-pyrazol-4-yl)methyl)acrylamide], the inhibition at 1 µM was 99% and the inhibition at 10 µM is 99%.

For `C=C(F)C(=O)NCc1cnn(Cc2cc(OC)c3c(NS(=O)(=O)c4cc(OC)ccc4OC)noc3c2)c1` [Syn. Ex. 41, N-((1-((3-((2,5-dimethoxyphenyl)sulfonamido)-4-methoxybenzo[d]isoxazol-6-yl)methyl)-1H-pyrazol-4-yl)methyl)-2-fluoroacrylamide], the inhibition at 1 µM stood at 87% and the inhibition at 10 µM was 100%.

Consider `C=C(F)C(=O)NCc1cnc(Oc2cc(OC)c3c(NS(=O)(=O)c4cc5c(cc4OC)CCC5)noc3c2)s1` [Syn. Ex. 143, 2-fluoro-N-((2-((4-methoxy-3-((6-methoxy-2,3-dihydro-1H-indene)-5-sulfonamido)benzo[d]isoxazol-6-yl)oxy)thiazol-5-yl)methyl)acrylamide], for which the “Average Kat6A % inhibition @ 1 μM” value was determined as 101% and the “Average Kat6A % inhibition @ 10 μM” value is on record as 99%.

Take `CCc1ccc(OCc2nn[nH]n2)c(S(=O)(=O)Nc2noc3cc(Cn4cc(CNC(=O)OC)cn4)cc(OC)c23)c1` [Syn. Ex. 71, methyl ((1-((3-((2-((2H-tetrazol-5-yl)methoxy)-5-ethylphenyl)sulfonamido)-4-methoxybenzo[d]isoxazol-6-yl)methyl)-1H-pyrazol-4-yl)methyl)carbamate]: the inhibition at 1 µM is 100% and the inhibition at 10 µM worked out at 100%.

As for `CCc1ccc(OCCN)c(S(=O)(=O)Nc2noc3cc(Cn4cc(CNC(=O)OC)cn4)cc(OC)c23)c1` [Syn. Ex. 75, methyl ((1-((3-((2-(2-aminoethoxy)-5-ethylphenyl)sulfonamido)-4-methoxybenzo[d]isoxazol-6-yl)methyl)-1H-pyrazol-4-yl)methyl)carbamate], the inhibition at 1 µM is 59% and the inhibition at 10 µM is 92%.

For `COC(=O)NCc1cnn(Cc2cc3c4c(noc4c2)NS(=O)(=O)c2c(OC)cccc2OCCCCCO3)c1` [Syn. Ex. 138, methyl ((1-((14-methoxy-15,15-dioxido-6,7,8,9-tetrahydro-5H,16H-4,10,18-trioxa-15-thia-16,17-diazabenzo[11,12]cyclotetradeca[1,2,3-cd]inden-2-yl)methyl)-1H-pyrazol-4-yl)methyl)carbamate], the “Average Kat6A % inhibition @ 1 μM” value was 111% and the “Average Kat6A % inhibition @ 10 μM” value is recorded as 114%.

On to `C=C(F)C(=O)NCc1cnn(Cc2cc(OC)c3c(NS(=O)(=O)c4cc(CC)ccc4OCCC#N)noc3c2)c1` [Syn. Ex. 84, N-((1-((3-((2-(2-cyanoethoxy)-5-ethylphenyl)sulfonamido)-4-methoxybenzo[d]isoxazol-6-yl)methyl)-1H-pyrazol-4-yl)methyl)-2-fluoroacrylamide], for which the inhibition at 1 µM was found to be 100% and the inhibition at 10 µM was determined as 100%.

For `COC(=O)NCc1cnn(Cc2cc(OC)c3c(NS(=O)(=O)c4cccc5c(C)ccnc45)noc3c2)c1` [Syn. Ex. 131, methyl ((1-((4-methoxy-3-((4-methylquinoline)-8-sulfonamido)benzo[d]isoxazol-6-yl)methyl)-1H-pyrazol-4-yl)methyl)carbamate], the “Average Kat6A % inhibition @ 1 μM” value is 99% and the “Average Kat6A % inhibition @ 10 μM” value worked out at 100%.

Regarding `CCc1ccc(OCCN2CCOC2=O)c(S(=O)(=O)Nc2noc3cc(Cn4cc(CNC(=O)OC)cn4)cc(OC)c23)c1` [Syn. Ex. 77, methyl ((1-((3-((5-ethyl-2-(2-(2-oxooxazolidin-3-yl)ethoxy)phenyl)sulfonamido)-4-methoxybenzo[d]isoxazol-6-yl)methyl)-1H-pyrazol-4-yl)methyl)carbamate], the inhibition at 1 µM turned out to be 96% and the inhibition at 10 µM is 98%.

With `C=C(F)C(=O)NCc1cnn(Cc2cc(OC)c3c(NS(=O)(=O)c4cc(CC)ccc4OCC(=O)O)noc3c2)c1` [Syn. Ex. 67, 2-(4-ethyl-2-(N-(6-((4-((2-fluoroacrylamido)methyl)-1H-pyrazol-1-yl)methyl)-4-methoxybenzo[d]isoxazol-3-yl)sulfamoyl)phenoxy)acetic acid], the inhibition at 1 µM came to 100% and the inhibition at 10 µM is 100%.

For the compound `C=C(F)C(=O)NCc1cnn(Cc2cc(OC)c3c(NS(=O)(=O)c4cc(CC)ccc4OCCNC(C)=O)noc3c2)c1` [Syn. Ex. 82, N-((1-((3-((2-(2-acetamidoethoxy)-5-ethylphenyl)sulfonamido)-4-methoxybenzo[d]isoxazol-6-yl)methyl)-1H-pyrazol-4-yl)methyl)-2-fluoroacrylamide], the inhibition at 1 µM worked out at 94% and the inhibition at 10 µM was 99%.
